Reference: patent US8853215B2, “Derivatives of N-acyl-N′-phenylpiperazine useful (inter alia) for the prophylaxis or treatment of diabetes” (Takeda Pharmaceutical Company Limited, priority 2009, dated 2014)

Molecular target: RBP4 (Mus musculus (Mouse), UniProt Q00724)
Assay: Single administration test in mice, plasma RBP4 by ELISA
Format: in vivo
Settings: male C57BL/6J or ICR mice, 50 mg/kg oral single dose, mean±SD
Protocol: The action of the compounds of the present invention to reduce plasma RBP4 level was evaluated using the animal model shown below.
Male C57BL/6J and ICR mice were purchased from Charles River (Japan) and maintained on a normal diet (CE2, CLAE Japan, Inc.) and tap water. Animals were housed in a temperature-controlled room adjusted to a 12-hour light/12-hour dark cycle beginning at 7:00 and 19:00, respectively. All procedures were conducted according to the experimental animal care use committee of Takeda Pharmaceutical Company.
Male 6-12-week-old C57BL/6J or ICR mice were housed individually and fed CE2 for 4-6 days. After acclimatization, mice were divided into groups based on their body weight. Compounds were suspended in 0.5% (w/v) methylcellulose in water and given orally to mice at a dose of 50 mg/10 mL/kg of body weight (three to five mice per group). Blood samples were obtained from orbital vein with sodium heparin as an anticoagulant at time 0 hr (just before the administration), 4 hr, 7 hr, and 24 hr after the administration, followed by plasma separation by centrifugation. Plasma RBP4 levels were measured by enzyme-linked immunosorbent assay described in the following section.
Plasma samples were analyzed in duplicate for RBP4 by an enzyme-linked immunosorbent assay. Mouse recombinant RBP4 (Takeda Pharmaceutical Company) was used as standards, and the assay range was 0.313-20 ng/ml. Samples were diluted 10,000-fold with phosphate-buffered saline (PBS) (Sigma) containing 10% (w/v) BlockAce (Dainippon Sumitomo Pharma Co., Ltd). Rabbit anti-RBP4 polyclonal antibody (100 μL/well of 50 μg/mL, Hokudo Co, Ltd) was incubated in a 96-well plate (Nalge Nunc International K.K.) for overnight at 4° C. Subsequently, the plates were washed with PBS-T (Wako Pure Chemical Industries, Ltd.) and blocked with PBS containing 25% BlockAce for 1 hr at room temperature. After another washing with PBS-T, samples and standards were applied to the well, and the plates were incubated for 2 hr at room temperature. After a washing the wells, peroxidase-labeled (Dojindo Laboratories) anti-RBP4 (100 μL/well) was added to the wells, and then the plates were incubated for 1 hr at room temperature. After a final washing with PBS-T, substrate solution 3,3,5,5-tetramethylbenzidine (Sigma) was added to the wells, and the plates were placed in the dark for 5-20 min at room temperature. The reaction was stopped with 0.5 M sulphuric acid and the optical density was measured with a spectrophotometer at 450 nm. The changes in plasma RBP4 levels were expressed as % of initial/Control. All data are presented as mean±SD.

RBP4 (% of initial/Control) 0 hr (0 hr (just before the administration)): 100.0 ± 25.0 % of initial/Control | RBP4 (% of initial/Control) 4 hr (4 hr after administration): 52.4 ± 2.8 % of initial/Control | RBP4 (% of initial/Control) 7 hr (7 hr after administration): 50.2 ± 0.9 % of initial/Control | RBP4 (% of initial/Control) 24 hr (24 hr after administration): 145.9 ± 19.6 % of initial/Control
Compound: CC(C)(C)c1ccccc1N1CCN(C(=O)C(=O)O)CC1 [Example 44, 2-[4-(2-tert-Butylphenyl)piperazin-1-yl]-2-oxoacetic acid]
